Data as given in patent US10858326B2, “Oxazoline pseudodimers, pharmaceutical compositions and the use thereof” (PURDUE PHARMA L.P., priority 2016, dated 2020).

Molecular target: hTAAR1 (Homo sapiens (Human), UniProt Q96RJ0)
Experiment: in vitro cAMP assay (agonist activity assay), HitHunter cAMP XS+, cAMP Hunter cell lines
Assay type: cell-based
Details: cAMP Hunter cells, n in brackets; for EC50: 30 min at 37° C., read-out: hTAAR1 EC50 (mean ± SEM(n)); for Emax: maximal cAMP level, read-out: hTAAR1 Emax (mean ± SEM(n))
Description: EC50 (the effective concentration of an agonist that produces half of the maximal effect) and Emax (the maximal cAMP level generated by the biding of a ligand) can be used as a measure of potency. […] An in vitro cAMP assay (agonist activity assay) is described below.
cAMP Hunter cell lines were expanded from freezer stocks according to standard procedures. Cells were seeded in a total volume of 20 μL into white walled, 384-well microplates and incubated at 37° C. overnight prior to testing. cAMP modulation was determined using the HitHunter™ cAMP XS+ assay (DiscoverX, Fremont, Calif.).
On the day of test, media was aspirated from cells and replaced with 15 μL HBSS/10 mM HEPES. A plate centrifuge was used for the media exchange, and the plate centrifuge was immediately stopped once its speed hit 270 RPM.
5 μL of 4× compound (prepared in HBSS/10 mM HEPES/4% DMSO) was added to cells and incubated at 37° C. for 30 minutes. Final assay vehicle concentration was 1%.
5 μL of cAMP XS+ Antibody reagent was then added, followed by 20 μL of ED/CL lysis mix. The mixture was incubated at room temperature for 60 minutes. 20 μL of EA reagent was added, and the mixture was incubated at room temperature for 120 minutes.
Microplates were read following signal generation with a PerkinElmer Envision™ instrument (Waltham, Mass.) for chemiluminescent signal detection. Compound activity was analyzed using CBIS Data Analysis Suite (ChemInnovation, CA).

Sequence of hTAAR1 (Q96RJ0 whole entry): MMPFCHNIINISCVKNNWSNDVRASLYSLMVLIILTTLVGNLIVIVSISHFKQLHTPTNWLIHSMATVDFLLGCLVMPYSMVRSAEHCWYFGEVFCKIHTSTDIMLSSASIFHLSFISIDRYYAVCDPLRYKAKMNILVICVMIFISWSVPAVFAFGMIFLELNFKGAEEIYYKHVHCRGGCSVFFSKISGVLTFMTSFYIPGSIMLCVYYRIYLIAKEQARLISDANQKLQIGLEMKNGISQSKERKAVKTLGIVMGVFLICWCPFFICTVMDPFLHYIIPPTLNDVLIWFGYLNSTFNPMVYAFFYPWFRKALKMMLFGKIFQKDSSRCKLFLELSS

Row | SMILES | EC50 [µM] | Emax [%]
1 | c1ccc([C@H]2COC(NC3=N[C@@H](c4ccccc4)CO3)=N2)cc1 [Compound (26), (4S)-4-phenyl-N-[(4S)-4-phenyl-4,5-dihydro-1,3-oxazol-2-yl]-4,5-dihydro-1,3-oxazol-2-amine] | > 10 | 3.6 ± 0.9
2 | Cc1c(F)cccc1[C@H]1COC(NC2=N[C@@H](c3cccc(F)c3C)CO2)=N1 [Compound (27), (4S)-4-(3-fluoro-2-methylphenyl)-N-[(4S)-4-(3-fluoro-2-methylphenyl)-4,5-dihydro-1,3-oxazol-2-yl]-4,5-dihydro-1,3-oxazol-2-amine] | 0.398 ± 0.0656 | 67.5 ± 3.4

Second part, led by results:

Row | EC50 [µM] | SMILES | Emax [%]
3 | > 10 | Clc1ccc([C@H]2COC(NC3=N[C@@H](c4ccc(Cl)c(Cl)c4)CO3)=N2)cc1Cl [Compound (8), (4S)-4-(3,4-dichlorophenyl)-N-[(4S)-4-(3,4-dichlorophenyl)-4,5-dihydro-1,3-oxazol-2-yl]-4,5-dihydro-1,3-oxazol-2-amine] | –
4 | > 10 | CCN(C[C@H]1COC(NC2=N[C@@H](c3ccc(Cl)c(Cl)c3)CO2)=N1)c1ccccc1 [Compound (24), (4S)-4-(3,4-dichlorophenyl)-N-[(4S)-4-{[ethyl(phenyl)amino]methyl}-4,5-dihydro-1,3-oxazol-2-yl]-4,5-dihydro-1,3-oxazol-2-amine] | 34.3 ± 8.7
5 | 4.07 ± 1.07 | CCN(C[C@H]1COC(NC2=N[C@@H](CN(CC)c3ccccc3)CO2)=N1)c1ccccc1 [Compound (25), (4S)-4-{[ethyl(phenyl)amino]methyl}-N-[(4S)-4-{[ethyl(phenyl)amino]methyl}-4,5-dihydro-1,3-oxazol-2-yl]-4,5-dihydro-1,3-oxazol-2-amine] | 60.7 ± 9.4
